The values below come from patent US7342012B2, “Inhibitors of αLβ2 mediated cell adhesion” (Mitsubishi Tanabe Pharma Corporation, priority 1999, dated 2008).

Structures can show the parent of a compound that is named as a salt.

Usually melting point stands for the temperature of the solid-liquid transition. `CC(=O)N1CCN2C(=O)N(c3cc(Cl)cc(Cl)c3)C(=O)C2(Cc2ccc(Br)cc2)C1` (stereo not shown) [Example 28, 4-Acetyl-6-(4-bromobenzyl)-8-(3,5-dichloro-phenyl)-1,4,8-triazabicyclo[4.3.0]nonane-7,9-dione] showed a melting point of 89.6 °C.

In turn, `CN1CCN2C(=O)N(c3cc(Cl)cc(Cl)c3)C(=O)C2(Cc2ccc(Br)cc2)C1` (stereo not shown) [Example 29, 4-Methyl-6-(4-bromobenzyl)-8-(3,5-dichloro-phenyl)-1,4,8-triazabicyclo[4.3.0]nonane-7,9-dione] displayed a melting point of 221 °C.

For `CC1(C)COC(c2ccc(CC34CCCCN3C(=O)N(c3cc(Cl)cc(Cl)c3)C4=O)cc2)=N1` (stereo not shown) [Example 159, 6-[4-(4,4-Dimethyl-4,5-dihydro-2-oxazolyl)benzyl]-8-(3,5-dichlorophenyl)-1,8-diazabicyclo[4.3.0]nonane-7,9-dione], the melting point came out at 87.2 °C.

In turn, `CCN(CC)CCN1CCN2C(=O)N(c3cc(Cl)cc(Cl)c3)C(=O)C2(Cc2ccc(Br)cc2)C1` (stereo not shown) (as salt: HCl) [Example 32, 4-[2-(Diethylamino)ethyl]-6-(4-bromobenzyl)-8-(3,5-dichlorophenyl)-1,4,8-triazabicyclo[4.3.0]nonane-7,9-dione] yielded a melting point of 223 °C.

The compound `NC(=O)C(N)CC(=O)N[C@@H]1CN2C(=O)N(c3cc(Cl)nc(Cl)c3)C(=O)[C@@]2(Cc2ccc(OC(F)(F)F)cc2)C1` (stereo partly drawn) [Example 255, (5R, 7S)-5-[4-(Trifluoromethoxy)benzyl]-3-(2,6-dichloro-4-pyridyl)-7-[(3-carbamoyl-3-aminopropanoyl)amino]-1,3-diazabicyclo[3.3.0]octane-2,4-dione] had a melting point of 107.8 °C.

For the compound `N#Cc1ccc(CC23CCCN2C(=O)N(c2cc(Cl)cc(-n4cccc4C=O)c2)C3=O)cc1` (stereo not shown) [Example 52, 5-(4-Cyanobenzyl)-3-[3-chloro-5-(2-formyl-1-pyrrolyl)-phenyl]-1,3-diazabicyclo[3.3.0]octane-2,4-dione], the melting point came out at 109.7 °C.

In turn, `CC(=O)N1CCCC2(Cc3ccc(Br)cc3)C(=O)N(c3cc(Cl)nc(Cl)c3)C(=O)N12` (stereo not shown) [Example 101, 6-(4-Bromobenzyl)-8-(2,6-dichloro-4-pyridyl)-2-acetyl-1,2,8-triazabicyclo[4.3.0]nonane-7,9-dione] yielded a melting point of 91 °C.

With `O=C1N(c2cc(Cl)cc(Cl)c2)C(=O)C2(Cc3ccc(Br)cc3)CNCCN12` (stereo not shown) [Example 27, 6-(4-Bromobenzyl)-8-(3,5-dichlorophenyl)-1,4,8-triazabicyclo[4.3.0]nonane-7,9-dione], the melting point was 92.5 °C.

`N#Cc1ccc(CC23CCCN2C(=O)N(c2cc(Cl)c(N)c(Cl)c2)C3=O)cc1` (stereo not shown) [Example 132, 5-(4-Cyanobenzyl)-3-(3,5-dichloro-4-aminophenyl)-1,3-diazabicyclo[3.3.0]octane-2,4-dione]: the melting point was 103 °C.

With `O=C1N(c2cc(Cl)cc(Cl)c2)C(=O)C2(Cc3ccc(S(=O)(=O)C(F)(F)F)cc3)CCCN12` (stereo not shown) [Example 311], the melting point was found to be 72.5 °C.

The compound `CC(=O)O[C@@H]1CN2C(=O)N(c3cc(Cl)cc(Cl)c3)C(=O)[C@]2(Cc2ccc(Br)cc2)C1` [Example 4, (5S,7S)-5-(4-Bromobenzyl)-3-(3,5-dichlorophenyl)-7-acetoxy-1,3-diazabicyclo[3.3.0]octane-2,4-dione] came in with a melting point of 149.8 °C.

In turn, `NC(=O)N[C@@H]1CN2C(=O)N(c3cc(Cl)nc(Cl)c3)C(=O)[C@@]2(Cc2ccc(OC(F)(F)F)cc2)C1` [Example 287, (5R, 7S)-5-[4-(Trifluoromethoxy)benzyl]-3-(2,6-dichloro-4-pyridyl)-7-ureido-1,3-diazabicyclo[3.3.0]octane-2,4-dione] returned a melting point of 141.7 °C.

Compound `N#Cc1ccc(CC23CCCN2C(=O)N(c2cc(Cl)nc(Cl)c2)C3=O)cc1` (stereo not shown) [Example 130, 5-(4-Cyanobenzyl)-3-(2,6-dichloro-4-pyridyl)-1,3-diazabicyclo[3.3.0]octane-2,4-dione] registered a melting point of 96 °C.
